This is an account of results in patent US12692221B2 (priority 2024, dated 2026).

One assay has as its target T1, D2S (h) (Homo sapiens, UniProt P14416).
T1 construct: expressed in transfected cells; host or cells: HEK-293 cells
The assay can be described thus: Radioligand binding D2S (h) (agonist radioligand), [^3H]7-OH-DPAT, HEK-293 cells. Here is the method: (§1) Methods—Binding Assays: In vitro binding assays were performed using human recombinant receptors expressed in mammalian cell lines. Receptors were expressed in either HEK-293 or CHO cells depending on the target, and assay conditions (radioligand, concentration, nonspecific competitor, temperature, and incubation time) were optimized for each receptor. All assays were conducted in triplicate, and specific binding was quantified by scintillation counting as the detection method for each listed assay.
(§2) Specific binding was expressed as a percentage of control-specific binding, and percent inhibition was calculated using the formula in Ex. 8 above. Half-maximal inhibitory concentrations (IC50) were determined by non-linear regression analysis of the inhibition curves using the Hill equation (see Ex. 8). Inhibition constants (Ki) were calculated using the Cheng-Prusoff equation (see Ex. 8). KD values used in these calculations had been previously established for each receptor under the assay conditions (see Table 6). Data analysis was performed using software developed at Cerep and validated against SigmaPlot 4.0 for Windows.

A further assay deals with T2, alpha1A (h) (Homo sapiens, UniProt P35348).
T2 construct: expressed in transfected cells; host or cells: CHO cells
T2 sequence (P35348 1-466): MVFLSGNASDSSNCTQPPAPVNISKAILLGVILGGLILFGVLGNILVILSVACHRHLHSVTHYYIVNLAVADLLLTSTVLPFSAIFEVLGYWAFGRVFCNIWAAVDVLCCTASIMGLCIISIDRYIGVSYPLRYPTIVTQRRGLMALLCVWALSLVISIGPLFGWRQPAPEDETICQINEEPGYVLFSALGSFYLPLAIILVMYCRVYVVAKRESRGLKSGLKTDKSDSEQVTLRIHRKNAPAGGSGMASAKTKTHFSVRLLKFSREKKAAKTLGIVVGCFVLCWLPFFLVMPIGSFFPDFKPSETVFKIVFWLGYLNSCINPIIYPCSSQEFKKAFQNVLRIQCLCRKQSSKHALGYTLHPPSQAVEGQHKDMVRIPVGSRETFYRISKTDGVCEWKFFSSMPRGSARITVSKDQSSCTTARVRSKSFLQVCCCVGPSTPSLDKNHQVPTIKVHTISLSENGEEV
Briefly: Radioligand binding alpha1A (h) (antagonist radioligand), [^3H]prazosin, CHO cells. Here is the method: as §1, §2

Another assay has as its target T3, D1 (h) (Homo sapiens, UniProt P21728).
T3 construct: expressed in transfected cells; host or cells: CHO cells
The assay can be described thus: Radioligand binding D1 (h) (antagonist radioligand), [^3H]SCH 23390, CHO cells. As to the method: as §1, §2

The target in a further assay is T4, A2A (h) (Homo sapiens, UniProt P29274).
T4 construct: expressed in transfected cells; host or cells: HEK-293 cells
T4 sequence (P29274 whole entry): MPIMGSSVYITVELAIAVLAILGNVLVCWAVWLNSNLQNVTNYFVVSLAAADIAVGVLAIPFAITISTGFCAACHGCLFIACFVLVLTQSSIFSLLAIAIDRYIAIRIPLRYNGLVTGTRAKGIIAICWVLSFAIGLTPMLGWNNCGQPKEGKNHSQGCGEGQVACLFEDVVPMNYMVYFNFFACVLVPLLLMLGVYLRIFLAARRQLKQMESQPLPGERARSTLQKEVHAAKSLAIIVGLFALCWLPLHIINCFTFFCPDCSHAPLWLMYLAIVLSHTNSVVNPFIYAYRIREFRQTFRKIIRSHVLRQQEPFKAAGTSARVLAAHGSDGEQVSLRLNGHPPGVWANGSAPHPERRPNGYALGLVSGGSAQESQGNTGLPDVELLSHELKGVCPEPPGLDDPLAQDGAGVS
Briefly: Radioligand binding A2A (h) (agonist radioligand), [^3H]CGS 21680, HEK-293 cells. As to the method:
as §1, §2

Another assay deals with T5, ETA (h) (Homo sapiens, UniProt P25101).
T5 construct: expressed in transfected cells; host or cells: CHO cells
T5 sequence (P25101 21-427): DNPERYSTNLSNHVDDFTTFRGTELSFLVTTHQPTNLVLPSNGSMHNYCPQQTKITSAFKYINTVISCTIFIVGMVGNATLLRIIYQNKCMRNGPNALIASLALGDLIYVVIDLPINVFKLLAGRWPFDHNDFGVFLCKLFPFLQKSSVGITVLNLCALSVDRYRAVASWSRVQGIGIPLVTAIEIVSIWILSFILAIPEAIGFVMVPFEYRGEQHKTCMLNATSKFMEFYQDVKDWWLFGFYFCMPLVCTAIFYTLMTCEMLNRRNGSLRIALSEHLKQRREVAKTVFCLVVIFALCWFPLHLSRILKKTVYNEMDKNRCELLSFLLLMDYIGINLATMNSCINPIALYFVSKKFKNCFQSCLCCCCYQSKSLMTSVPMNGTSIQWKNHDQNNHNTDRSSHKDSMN
The assay can be described thus: Radioligand binding ETA (h) (agonist radioligand), [^125I]endothelin-1, CHO cells. Here is the method: as §1, §2

In a further assay the target is T6, H1 (h) (Homo sapiens, UniProt P35367).
T6 construct: expressed in transfected cells; host or cells: HEK-293 cells
T6 sequence (P35367 whole entry): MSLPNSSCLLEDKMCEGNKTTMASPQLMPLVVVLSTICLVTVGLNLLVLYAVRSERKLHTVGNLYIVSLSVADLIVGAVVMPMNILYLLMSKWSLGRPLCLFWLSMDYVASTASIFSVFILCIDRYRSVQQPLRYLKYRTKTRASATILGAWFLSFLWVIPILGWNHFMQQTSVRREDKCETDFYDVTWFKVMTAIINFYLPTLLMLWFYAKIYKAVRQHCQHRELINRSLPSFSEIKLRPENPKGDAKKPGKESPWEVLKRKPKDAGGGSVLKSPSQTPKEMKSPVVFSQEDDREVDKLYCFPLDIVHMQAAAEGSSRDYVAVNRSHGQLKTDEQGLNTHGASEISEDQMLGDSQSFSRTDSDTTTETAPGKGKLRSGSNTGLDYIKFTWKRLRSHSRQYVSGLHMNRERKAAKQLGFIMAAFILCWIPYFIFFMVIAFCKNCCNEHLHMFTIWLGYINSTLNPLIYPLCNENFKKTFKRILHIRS
Briefly: Radioligand binding H1 (h) (antagonist radioligand), [^3H]pyrilamine, HEK-293 cells. As to the method: as §1, §2

The next assay has as its target T7, V1a (h) (Homo sapiens, UniProt P37288).
T7 construct: expressed in transfected cells; host or cells: CHO cells
The assay can be described thus: Radioligand binding V1a (h) (agonist radioligand), [^3H]AVP, CHO cells. As to the method:
as §1, §2

The next assay deals with T8, beta2 (h) (Homo sapiens, UniProt P07550).
T8 construct: expressed in transfected cells; host or cells: CHO cells
T8 sequence (P07550 whole entry): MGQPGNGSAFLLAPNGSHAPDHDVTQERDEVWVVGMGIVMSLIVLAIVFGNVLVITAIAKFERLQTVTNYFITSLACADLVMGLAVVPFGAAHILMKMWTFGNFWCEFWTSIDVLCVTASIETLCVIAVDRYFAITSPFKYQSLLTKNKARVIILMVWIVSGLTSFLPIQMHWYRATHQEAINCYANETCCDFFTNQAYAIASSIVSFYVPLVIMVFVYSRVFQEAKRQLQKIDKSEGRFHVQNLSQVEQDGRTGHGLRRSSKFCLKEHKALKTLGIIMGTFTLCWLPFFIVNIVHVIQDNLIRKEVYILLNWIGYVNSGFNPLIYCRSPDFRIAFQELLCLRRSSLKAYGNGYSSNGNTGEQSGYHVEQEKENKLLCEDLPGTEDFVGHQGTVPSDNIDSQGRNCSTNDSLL
The assay can be described thus: Radioligand binding beta2 (h) (antagonist radioligand), [^3H](−)CGP 12177, CHO cells. As to the method:
as §1, §2

Another assay deals with male C57BL/6J mice. The assay can be described thus: Mouse head-twitch response (HTR) assay, magnetometer. The assay is classed as in vivo. The conditions noted are these: i.p.; for HTR (head twitch response), in words: doses up to 30 mpk.
The target in a further assay is T9, M3 (h) (Homo sapiens, UniProt P20309).
T9 construct: expressed in transfected cells; host or cells: CHO cells
T9 sequence (P20309 whole entry): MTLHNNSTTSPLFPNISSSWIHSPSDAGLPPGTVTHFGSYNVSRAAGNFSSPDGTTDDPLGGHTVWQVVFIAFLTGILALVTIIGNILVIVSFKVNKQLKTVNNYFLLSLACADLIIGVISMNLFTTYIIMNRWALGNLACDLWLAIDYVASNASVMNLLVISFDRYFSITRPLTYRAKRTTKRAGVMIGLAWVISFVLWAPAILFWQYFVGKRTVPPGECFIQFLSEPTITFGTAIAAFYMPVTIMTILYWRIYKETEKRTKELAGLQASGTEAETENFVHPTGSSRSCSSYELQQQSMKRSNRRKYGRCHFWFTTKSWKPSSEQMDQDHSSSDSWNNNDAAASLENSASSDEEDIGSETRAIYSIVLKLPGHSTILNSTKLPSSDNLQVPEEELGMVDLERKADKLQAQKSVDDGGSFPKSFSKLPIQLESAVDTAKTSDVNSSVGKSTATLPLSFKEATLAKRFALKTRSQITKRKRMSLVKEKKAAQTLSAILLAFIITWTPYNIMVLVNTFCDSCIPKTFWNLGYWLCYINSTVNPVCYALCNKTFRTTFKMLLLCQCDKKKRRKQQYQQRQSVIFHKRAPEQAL
The assay can be described thus: Radioligand binding M3 (h) (antagonist radioligand), [^3H]4-DAMP, CHO cells. As to the method: as §1, §2

In a further assay the target is T10, 5-HT3 (h) (Homo sapiens, UniProt P46098).
T10 construct: expressed in transfected cells; host or cells: CHO cells
T10 sequence (P46098 24-478): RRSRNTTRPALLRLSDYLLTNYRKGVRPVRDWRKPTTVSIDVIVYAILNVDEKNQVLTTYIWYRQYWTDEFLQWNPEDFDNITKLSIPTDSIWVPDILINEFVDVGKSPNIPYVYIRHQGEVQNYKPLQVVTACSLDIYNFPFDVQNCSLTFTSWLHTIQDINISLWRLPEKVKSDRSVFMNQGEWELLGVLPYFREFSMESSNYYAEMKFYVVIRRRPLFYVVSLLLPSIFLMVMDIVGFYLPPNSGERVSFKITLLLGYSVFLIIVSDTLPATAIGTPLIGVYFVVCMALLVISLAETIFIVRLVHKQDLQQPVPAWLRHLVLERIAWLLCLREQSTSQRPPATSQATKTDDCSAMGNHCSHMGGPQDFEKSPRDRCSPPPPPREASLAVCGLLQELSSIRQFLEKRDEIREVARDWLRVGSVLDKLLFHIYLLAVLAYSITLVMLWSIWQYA
The assay can be described thus: Radioligand binding 5-HT3 (h) (antagonist radioligand), [^3H]BRL 43694, CHO cells. Here is the method:
as §1, §2

The structures appear in SMILES notation. Entries after “also recorded” stand apart in the source; their conditions may differ.

T3 sequence (P21728 whole entry): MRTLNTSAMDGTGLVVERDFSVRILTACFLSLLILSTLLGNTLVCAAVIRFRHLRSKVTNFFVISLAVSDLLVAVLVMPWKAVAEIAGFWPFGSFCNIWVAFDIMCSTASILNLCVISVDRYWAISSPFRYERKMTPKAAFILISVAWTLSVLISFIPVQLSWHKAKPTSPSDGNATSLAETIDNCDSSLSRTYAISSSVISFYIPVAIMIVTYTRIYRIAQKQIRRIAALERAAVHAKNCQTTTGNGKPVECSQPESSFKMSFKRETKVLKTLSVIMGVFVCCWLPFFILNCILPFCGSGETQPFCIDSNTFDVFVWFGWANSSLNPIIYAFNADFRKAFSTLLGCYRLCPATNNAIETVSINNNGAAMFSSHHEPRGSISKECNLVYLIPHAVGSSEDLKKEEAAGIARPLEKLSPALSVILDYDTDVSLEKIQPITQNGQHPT
T7 sequence (P37288 whole entry): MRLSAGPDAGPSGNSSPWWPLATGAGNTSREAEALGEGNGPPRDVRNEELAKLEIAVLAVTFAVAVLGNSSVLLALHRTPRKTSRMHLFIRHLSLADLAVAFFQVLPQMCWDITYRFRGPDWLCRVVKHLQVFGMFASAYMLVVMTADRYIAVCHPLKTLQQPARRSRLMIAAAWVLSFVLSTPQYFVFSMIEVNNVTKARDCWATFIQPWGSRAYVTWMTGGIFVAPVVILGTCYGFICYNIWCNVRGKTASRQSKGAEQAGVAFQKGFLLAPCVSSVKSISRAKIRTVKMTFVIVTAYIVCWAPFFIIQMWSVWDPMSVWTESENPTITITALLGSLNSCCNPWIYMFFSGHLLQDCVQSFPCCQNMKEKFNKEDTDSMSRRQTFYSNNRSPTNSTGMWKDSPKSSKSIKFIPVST
T1 sequence (P14416 1-414 isoform P14416-2): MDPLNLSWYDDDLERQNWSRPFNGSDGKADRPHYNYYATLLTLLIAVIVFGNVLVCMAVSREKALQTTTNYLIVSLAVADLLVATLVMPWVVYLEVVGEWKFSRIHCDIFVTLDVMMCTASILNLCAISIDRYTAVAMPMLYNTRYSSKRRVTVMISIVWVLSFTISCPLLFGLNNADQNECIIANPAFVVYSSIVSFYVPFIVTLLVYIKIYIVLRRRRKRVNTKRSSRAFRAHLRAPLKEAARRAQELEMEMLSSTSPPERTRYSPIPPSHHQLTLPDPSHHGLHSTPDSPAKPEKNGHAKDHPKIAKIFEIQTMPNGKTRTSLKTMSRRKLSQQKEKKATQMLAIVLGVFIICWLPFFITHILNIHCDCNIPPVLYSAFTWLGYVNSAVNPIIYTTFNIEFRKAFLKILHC

With `COCc1cc(CCN)c(O)cc1CC(C)C` [2CiBu-2OH-5MM, 2-(2-aminoethyl)-5-isobutyl-4-(methoxymethyl)phenol], the “Mean Percent Inhibition of Control Specific Binding” value (“Mean Percent Inhibition” for short) at D2S (h) is 46.6%; at alpha1A (h), 51.6%; at D1 (h), 4.0%; at A2A (h), 11.0%; at ETA (h), −9.0%; at H1 (h) it was 5.7%. Further, the “Mean Percent Inhibition” value was 4.8% on V1a (h), 42.1% on beta2 (h), 10.6% on M3 (h) and −3.9% on 5-HT3 (h). Further, the “HTR (head twitch response), in words” value with male C57BL/6J mice is listed as “did not produce meaningful HTR across the tested dose range”.

Regarding `COCCc1cc(CCN)c(OC)cc1Br` [Compound 2CB-5ME, reference compound], the “Mean Percent Inhibition” value at D2S (h) is 83.0%; on alpha1A (h), 33.6%; on D1 (h), 28.1%; at A2A (h), −21.3%; at ETA (h), −3.5%; on H1 (h) it was 7.3%. Also, the “Mean Percent Inhibition” value on V1a (h) is recorded as 11.2%; on beta2 (h), 31.8%; on M3 (h) it was 47.9%; at 5-HT3 (h), −1.6%. For the same compound, in the assay on male C57BL/6J mice, the “HTR (head twitch response), in words” value is given as “did not produce statistically significant changes in HTR”.

On to `COCc1cc(CCN)c(OC)cc1CC(C)C` [Compound 2CiBu-5MM, 2-[4-isobutyl-2-methoxy-5-(methoxymethyl)phenyl]ethanamine], for which the “Mean Percent Inhibition” value at D2S (h) is given as 12.9%; at alpha1A (h), 7.6%; at D1 (h) it was −1.4%; at A2A (h) it was 1.1%; on ETA (h), −1.5%; at H1 (h) it was 0.6%. In addition, the “Mean Percent Inhibition” value at V1a (h) stood at 5.3%; at beta2 (h) it was 38.3%; on M3 (h) it was 31.8%; at 5-HT3 (h) it was 2.6%. For the same compound, the “ED50 based on HTR counts” value in the assay on male C57BL/6J mice (HTR counts summed over a 30-60 min interval) is reported as 5.926 mpk. Besides, the “HTR (head twitch response), in words” value in the assay on male C57BL/6J mice was “subtle suppression of HTR during the first 15 min followed by a rebound in HTR counts during the last 30 min segment; also recorded: HTR counts remained near baseline throughout the observation period; also recorded: overall neutral effect compared to vehicle HTR occurrences”.

With `COCc1cc(CCN)c(OC)cc1Br` [Compound 2CB-5MM, 2-(4-bromo-2-methoxy-5-(methoxymethyl)phenyl)ethan-1-amine], the “Mean Percent Inhibition” value at D2S (h) is 89.4%; on alpha1A (h), 29.4%; at D1 (h) it was 21.1%; at A2A (h), 12.2%; at ETA (h), −6.5%; at H1 (h), 7.3%. In addition, the “Mean Percent Inhibition” value at V1a (h) is recorded as 5.5%; on beta2 (h) it was 18.8%; on M3 (h), 29.2%; on 5-HT3 (h) it was 11.6%. In addition, the “HTR (head twitch response), in words” value in the assay on male C57BL/6J mice is given as “did not elicit a significant HTR at any tested dose”.
